These results are taken from US8309546B2, “Morpholinopurine derivatives” (Daiichi Sankyo Company, Limited, priority 2008, dated 2012).

Several values for one entry are separate records, joined by “and”; a condition that tells them apart may be missing. Identical values can stand only once. A value given as a limit tells only on which side of the number the result lay.

Assay [1] deals with PI3Kα (Homo sapiens, UniProt P42336). Briefly: PI3K kinase activity inhibition assay. Type of assay: biochemical. To be noted: Kinase-Glo Plus ATP detection, read-out: IC50 against PI3K. In a few lines: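 PI3Kα (50 nM solution) was reacted with 30 μM ATP and 45 μM PIP2 solutions, each in HEPES pH 7.4 with MgCl2 and DTT, for 2 h at room temperature. Remaining ATP was measured by Kinase-Glo Plus luminescence, and inhibition was derived from ATP consumed. IC50 was taken from curve fitting of the serial dilutions.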
PI3Kα, sequence (P42336 whole entry, species assumed): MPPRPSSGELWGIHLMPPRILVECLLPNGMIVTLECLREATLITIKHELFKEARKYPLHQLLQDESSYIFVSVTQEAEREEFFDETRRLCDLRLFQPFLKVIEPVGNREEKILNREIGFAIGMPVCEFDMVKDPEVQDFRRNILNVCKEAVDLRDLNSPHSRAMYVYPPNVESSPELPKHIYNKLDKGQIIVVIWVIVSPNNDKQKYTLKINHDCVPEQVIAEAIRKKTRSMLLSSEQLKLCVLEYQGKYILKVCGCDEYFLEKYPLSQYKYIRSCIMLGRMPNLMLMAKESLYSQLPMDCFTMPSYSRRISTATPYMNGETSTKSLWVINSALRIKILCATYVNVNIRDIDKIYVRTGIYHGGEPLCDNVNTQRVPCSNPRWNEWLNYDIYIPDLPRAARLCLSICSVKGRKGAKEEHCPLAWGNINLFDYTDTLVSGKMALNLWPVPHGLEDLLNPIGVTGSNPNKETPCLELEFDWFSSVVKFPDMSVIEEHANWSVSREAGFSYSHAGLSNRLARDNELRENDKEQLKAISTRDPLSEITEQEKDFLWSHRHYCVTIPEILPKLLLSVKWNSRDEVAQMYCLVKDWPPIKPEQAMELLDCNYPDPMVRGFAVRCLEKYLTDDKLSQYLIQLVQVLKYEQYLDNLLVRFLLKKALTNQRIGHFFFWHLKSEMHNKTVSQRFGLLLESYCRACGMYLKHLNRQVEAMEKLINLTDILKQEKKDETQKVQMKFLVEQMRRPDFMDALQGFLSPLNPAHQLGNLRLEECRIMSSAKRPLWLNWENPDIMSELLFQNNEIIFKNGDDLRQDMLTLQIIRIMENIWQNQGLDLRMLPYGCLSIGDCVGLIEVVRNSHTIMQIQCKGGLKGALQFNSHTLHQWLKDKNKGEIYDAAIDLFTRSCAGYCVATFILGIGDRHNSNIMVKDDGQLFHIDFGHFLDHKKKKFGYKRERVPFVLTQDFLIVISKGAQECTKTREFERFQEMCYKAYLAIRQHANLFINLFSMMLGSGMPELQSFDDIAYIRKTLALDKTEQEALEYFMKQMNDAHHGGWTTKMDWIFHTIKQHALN
PI3Kα, sequence (P27986 whole entry partner, species assumed): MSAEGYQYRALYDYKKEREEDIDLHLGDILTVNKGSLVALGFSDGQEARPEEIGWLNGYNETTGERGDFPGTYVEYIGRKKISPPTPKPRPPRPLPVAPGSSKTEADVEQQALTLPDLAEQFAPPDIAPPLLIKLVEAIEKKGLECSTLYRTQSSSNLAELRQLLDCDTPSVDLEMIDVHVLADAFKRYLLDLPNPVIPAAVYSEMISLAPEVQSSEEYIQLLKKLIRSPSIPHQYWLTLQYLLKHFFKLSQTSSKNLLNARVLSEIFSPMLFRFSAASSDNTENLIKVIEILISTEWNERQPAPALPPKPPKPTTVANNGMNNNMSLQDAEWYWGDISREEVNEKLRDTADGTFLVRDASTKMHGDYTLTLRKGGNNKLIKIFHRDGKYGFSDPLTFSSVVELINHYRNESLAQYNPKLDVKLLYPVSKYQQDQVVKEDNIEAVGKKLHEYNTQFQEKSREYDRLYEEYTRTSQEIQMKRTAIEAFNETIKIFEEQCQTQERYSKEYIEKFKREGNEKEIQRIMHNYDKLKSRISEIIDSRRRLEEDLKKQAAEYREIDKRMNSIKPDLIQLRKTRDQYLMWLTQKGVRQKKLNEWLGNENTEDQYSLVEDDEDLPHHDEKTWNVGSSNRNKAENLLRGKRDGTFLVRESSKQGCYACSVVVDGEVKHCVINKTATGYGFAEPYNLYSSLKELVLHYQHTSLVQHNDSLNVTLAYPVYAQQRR
(In general: Kinase-Glo measures the ATP left after a reaction by luminescence.)

Assay [2] relates to human endometrial cancer cell strain AN3CA. Briefly: Cell growth inhibition test (MTT), AN3CA. The assay is classed as cell-based. As to conditions: AN3-CA, 72 h, 3 days culture, read-out: concentration exhibiting anti-cell effect (GI50). In a few lines: (§1)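 Each cell strain is exposed to serially diluted compound for 3 days (37° C, 5% CO2), added one day after seeding at 5000 (AN3CA, HT29) or 1000 (IGROV1) cells/well. Living cells are quantified by MTT reduction over 4 h, absorbance at 540 nm, giving GI50 at 50% growth rate.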

In assay [3] the test system is human ovary cancer cell strain IGROV1. Put plainly: Cell growth inhibition test (MTT), IGROV1. Type of assay: cell-based. To be noted: IGROV-1, 72 h, IGROV1, 3 days culture, read-out: concentration exhibiting anti-cell effect (GI50). The essentials:
as §1

Assay [4] deals with human colon cancer cell strain HT29. Briefly: Cell growth inhibition test (MTT), HT29. The assay is classed as cell-based. As to conditions: HT-29, 72 h, HT29, 3 days culture, read-out: concentration exhibiting anti-cell effect (GI50). In a few lines: as §1
Assay [5] relates to human endometrial cancer cell strain AN3CA tumor. Put plainly: Anti-tumor effect assay using mouse subcutaneous transplantation model. Type of assay: in vivo, female nude mouse. To be noted: AN3-CA, oral, tumor weight vs negative control, read-out: Anti-tumor effect (tumor growth inhibition rate). Here is the method: A tumor section was prepared from a human endometrial cancer cell strain AN3CA tumor mass formed in a female nude mouse as a subcutaneously transplanted tumor and then a xenograft model was prepared by transplanting the tumor section into female nude mouse. Tumor-bearing mice having an estimated tumor volume (long diameter×short diameter×short diameter/2) of 80 to 200 mm^3 were divided, so that there should be no significant difference in the mean estimated tumor volume and body weight as compared with the negative control group to perform a test. The test compound was orally administered at a predetermined dose for 8 consecutive days. On the following day of the final administration day, tumor-bearing mice were anesthetized and exsanguinated to death and a tumor mass was isolated to measure tumor weight (the compounds of Examples 1, 3, 6, 8, 11, 12, and 14). Furthermore, as a similar test, the test compound was orally administered for 5 consecutive days, animals were sacrificed on the final administration day, and tumor weight was measured (the compounds of Examples 60, 63, 75, 77, 79, 89, 92, 107, 108, 109, 110, and 127).
In all the tests, anti-tumor effect was calculated by the following formula. {1−(tumor weight in compound treatment group/tumor weight in negative control group)}×100

Assay [6] addresses T1, human mTOR (His-tagged mTOR (1362C)) (Homo sapiens, UniProt P42345).
T1 construct: the 1362 to 2549 amino acid portion on the C terminus side of human mTOR; His tag (N); made in house
Put plainly: mTOR kinase activity inhibition assay. The assay is classed as biochemical. To be noted: HTRF, read-out: IC50 against mTOR. The essentials:
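Crude His-tagged mTOR (aa 1362–2549) from stable HEK293 cells, with 8 μg/ml biotinylated peptide in 50 mM HEPES pH 7.5, 20 mM MnCl2; compound diluted in 20 μM ATP solution, reaction 3 h at room temperature. Phospho-peptide detected by HTRF (anti-phospho-S6K Thr389 cryptate/streptavidin-XL665, overnight at 4°C), 665/620 nm ratio. IC50 derived from curve fit of % inhibition.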

Assay [7] deals with Akt (threonine 308) phosphorylation in AN3CA tumor. Put plainly: Akt phosphorylation inhibition assay in xenograft. The assay is classed as in vivo, female nude mouse. To be noted: Mus musculus, AN3-CA, oral, 6 hr after dosing. Here is the method:
(§2) A tumor section was prepared from a human endometrial cancer cell strain AN3CA tumor mass formed in a female nude mouse as subcutaneously transplanted tumor and a xenograft model was prepared by subcutaneously transplanting the tumor to a female nude mouse. The test compound at a predetermined concentration was orally administered. After a predetermined time, the anesthetized mouse was exsanguinated to death, and a tumor mass was isolated. The tumor mass was crushed using a lysis buffer containing inhibitors of proteases and dephosphorylating enzymes (Cell Signaling Technology, Inc.) and the supernatant was separated by centrifugation to obtain a tumor extract. The protein content of the tumor extract was measured using DC Protein Assay Kit (Bio-Rad Laboratories, Inc.) and phosphorylation conditions of Akt (threonine 308) and S6 (serine 235 and 236) were analyzed by a usual technique of western blotting using tumor extracts containing the same amount of protein. The primary antibody and the secondary antibody used for detecting each molecule were rabbit anti-phospho-Akt(T308) antibody and HRP-labeled goat anti-rabbit IgG antibody or mouse anti-phospho-S6(S235/236) antibody and HRP-labeled sheep anti-mouse IgG antibody.
(§3) The signal intensity detected using an image analyzer Typhoon 9400 (GE Healthcare) was quantified, and the phosphorylation inhibition rate (%) was calculated by the following formula. Phosphorylation inhibitory activity (%) of Akt and S6 after treatment with test compound=100−100×(B/A) A: Signal intensity derived from phosphorylated protein in tumor mass isolated from mouse untreated with test compound B: Signal intensity derived from phosphorylated protein in tumor mass isolated from mouse treated with test compound

The test system of assay [8] is S6 (serine 235 and 236) phosphorylation in AN3CA tumor. Put plainly: S6 phosphorylation inhibition assay in xenograft. Type of assay: in vivo, female nude mouse. To be noted: Mus musculus, AN3-CA, oral, 6 hr after dosing. Here is the method:
as §2, §3

As a reminder, the IC50 is the concentration needed to halve the response being measured. Broadly, the inhibition is the relative decrease from the control value, in per cent.

T1 sequence (P42345 1362-2549): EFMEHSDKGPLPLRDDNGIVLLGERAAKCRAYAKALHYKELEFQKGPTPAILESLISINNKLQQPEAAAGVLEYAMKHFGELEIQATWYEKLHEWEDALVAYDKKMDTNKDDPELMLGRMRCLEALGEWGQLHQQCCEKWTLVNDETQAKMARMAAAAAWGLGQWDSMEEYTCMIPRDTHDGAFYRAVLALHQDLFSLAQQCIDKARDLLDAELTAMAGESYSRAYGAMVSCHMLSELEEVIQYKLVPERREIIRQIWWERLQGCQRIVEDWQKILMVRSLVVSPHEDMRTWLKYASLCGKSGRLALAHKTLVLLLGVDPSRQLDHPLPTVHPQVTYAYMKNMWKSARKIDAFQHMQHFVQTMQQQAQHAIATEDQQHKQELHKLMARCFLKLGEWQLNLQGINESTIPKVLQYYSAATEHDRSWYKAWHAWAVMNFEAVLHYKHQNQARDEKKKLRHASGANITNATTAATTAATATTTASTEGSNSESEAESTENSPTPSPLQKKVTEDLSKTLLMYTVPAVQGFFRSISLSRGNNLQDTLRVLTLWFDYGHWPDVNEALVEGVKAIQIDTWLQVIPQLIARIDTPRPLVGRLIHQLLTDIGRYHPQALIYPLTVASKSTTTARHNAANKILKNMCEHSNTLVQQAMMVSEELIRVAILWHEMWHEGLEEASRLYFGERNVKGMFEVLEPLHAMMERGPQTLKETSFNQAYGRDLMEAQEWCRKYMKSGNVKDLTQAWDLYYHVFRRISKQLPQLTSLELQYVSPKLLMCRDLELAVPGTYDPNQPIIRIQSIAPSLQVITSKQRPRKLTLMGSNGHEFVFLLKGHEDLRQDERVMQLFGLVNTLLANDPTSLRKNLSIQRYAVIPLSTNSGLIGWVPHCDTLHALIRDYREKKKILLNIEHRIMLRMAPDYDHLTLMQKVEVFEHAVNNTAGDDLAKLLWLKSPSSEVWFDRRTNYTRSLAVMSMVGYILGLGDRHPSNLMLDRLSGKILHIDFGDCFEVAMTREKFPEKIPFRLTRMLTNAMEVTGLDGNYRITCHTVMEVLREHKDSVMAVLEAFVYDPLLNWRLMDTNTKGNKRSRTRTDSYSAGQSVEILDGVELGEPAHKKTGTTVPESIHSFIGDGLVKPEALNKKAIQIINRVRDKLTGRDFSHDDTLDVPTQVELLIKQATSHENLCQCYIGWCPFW

For `C[C@@H]1CN(c2nc3c(N4CCOCC4)nc(-c4cnc(N)nc4)nc3n2CC2CC2)C[C@H](C)N1` [Example 12, 5-{9-(Cyclopropylmethyl)-8-(cis-3,5-dimethylpiperazin-1-yl)-6-morpholin-4-yl-9H-purin-2-yl}pyrimidin-2-amine], the IC50 in assay [1] was 0.01 to 0.02 µM and 0.02 to 0.05 µM. The GI50 in assay [2], in assay [3] and in assay [4] was not above 5 µM each time. For the same molecule, the inhibition in vivo at 10 mg/kg/day in assay [5] (10 mg/kg/day, 8 or 5 consecutive days depending on compound) worked out at 61%. Besides, in assay [5] (20 mg/kg/day, consecutive days), the inhibition in vivo at 20 mg/kg/day is 71%.
For `C[C@@H]1CN(c2nc3c(N4CCOCC4)nc(-c4cnc(N)nc4)nc3n2CC(F)(F)F)CCN1` [Example 59, 5-{8-[(3R)-3-Methylpiperazin-1-yl]-6-morpholin-4-yl-9-(2,2,2-trifluoroethyl)-9H-purin-2-yl}pyrimidin-2-amine], the IC50 in assay [1] is less than 0.01 µM; in assay [6], 0.01 to 0.03 µM. Besides, the GI50 in assay [2], in assay [3] and in assay [4] was not above 5 µM each time.
In the case of `Cc1nc(N)ncc1-c1nc(N2CCOCC2)c2nc(N3CC[C@@H](NS(C)(=O)=O)C3)n(CC3CC3)c2n1` [Example 72, N-{(3R)-1-[2-(2-Amino-4-methylpyrimidin-5-yl)-9-(cyclopropylmethyl)-6-morpholin-4-yl-9H-purin-8-yl]pyrrolidin-3-yl}methanesulfonamide], the half-inhibitory concentration (IC50) is less than 0.01 µM in assay [1] and not below 0.5 µM in assay [6]. Besides, the GI50 in assay [2], in assay [3] and in assay [4] was not above 5 µM in each case.
Turning to `Cc1nc(N)ncc1-c1nc(N2CCOCC2)c2nc(N3CC[C@H](NS(C)(=O)=O)C3)n(CC3CC3)c2n1` [Example 73, N-{(3S)-1-[2-(2-Amino-4-methylpyrimidin-5-yl)-9-(cyclopropylmethyl)-6-morpholin-4-yl-9H-purin-8-yl]pyrrolidin-3-yl}methanesulfonamide], the concentration for half-maximal inhibition (IC50) is less than 0.01 µM in assay [1] and not below 0.5 µM in assay [6]. Besides, the GI50 in assay [2], in assay [3] and in assay [4] was not above 5 µM each time.
With `C[C@H]1CN(c2nc3c(N4CCOCC4)nc(-c4cnc(N)nc4)nc3n2CC2CC2)CCN1` [Example 91, 5-{9-(Cyclopropylmethyl)-8-[(3S)-3-methylpiperazin-1-yl]-6-morpholin-4-yl-9H-purin-2-yl}pyrimidin-2-amine], the figures for the IC50 in assay [1] and in assay [6] were less than 0.01 µM and 0.01 to 0.03 µM, respectively. Also, the GI50 in assay [2], in assay [3] and in assay [4] was not above 5 µM each time.
As to `C[C@@H]1CN(c2nc3c(N4CCOCC4)nc(-c4cnc(N)nc4)nc3n2CC2CC2)CCN1` [Example 94, 5-{9-(Cyclopropylmethyl)-8-[(3R)-3-methylpiperazin-1-yl]-6-morpholin-4-yl-9H-purin-2-yl}pyrimidin-2-amine], the figures for the 50% inhibitory concentration (IC50) in assay [1] and in assay [6] were less than 0.01 µM and 0.01 to 0.03 µM, respectively. For the same molecule, the GI50 in assay [2], in assay [3] and in assay [4] was not above 5 µM each time.
Turning to `C[C@@H]1CN(c2nc3c(N4CCOCC4)nc(-c4cnc(N)nc4)nc3n2CC(F)(F)F)C[C@H](C)N1C(=O)CO` [Example 120], the IC50 in assay [1] and in assay [6] was less than 0.01 µM each time. The GI50 in assay [2], in assay [3] and in assay [4] was not above 5 µM in each case.
As to `CC(=O)N1CCN(c2nc3c(N4CCOCC4)nc(-c4cnc(N)nc4)nc3n2CC(F)(F)F)CC1(C)C` [Example 122, 5-[8-(4-Acetyl-3,3-dimethylpiperazin-1-yl)-6-morpholin-4-yl-9-(2,2,2-trifluoroethyl)-9H-purin-2-yl]pyrimidin-2-amine], the IC50 in assay [1] and in assay [6] was less than 0.01 µM in each case. Besides, the GI50 in assay [2], in assay [3] and in assay [4] was not above 5 µM throughout.
Consider `CC1(C)CN(c2nc3c(N4CCOCC4)nc(-c4cnc(N)nc4)nc3n2CC(F)(F)F)CCN1C(=O)CO` [Example 123], for which the results for the IC50 in assay [1] and in assay [6] were 0.01 to 0.02 µM and less than 0.01 µM, respectively. For the same molecule, the GI50 in assay [2], in assay [3] and in assay [4] was not above 5 µM each time.
As to `CC(O)C(=O)N1[C@H](C)CN(c2nc3c(N4CCOCC4)nc(-c4cnc(N)nc4)nc3n2CC(F)(F)F)C[C@@H]1C` (stereo partly drawn) [Example 124, 1-{4-[2-(2-Aminopyrimidin-5-yl)-6-morpholin-4-yl-9-(2,2,2-trifluoroethyl)-9H-purin-8-yl]-cis-2,6-dimethylpiperazin-1-yl}-1-oxopropan-2-ol], the half-maximal inhibitory concentration (IC50) in assay [1] is 0.01 to 0.02 µM; in assay [6], less than 0.01 µM. Further, the GI50 in assay [2], in assay [3] and in assay [4] was not above 5 µM in each case.
As for `C[C@H]1CN(c2nc3c(N4CCOCC4)nc(-c4cnc(N)nc4)nc3n2CC(F)(F)F)CCN1C(=O)CO` [Example 125, 2-{(2S)-4-[2-(2-Aminopyrimidin-5-yl)-6-morpholin-4-yl-9-(2,2,2-trifluoroethyl)-9H-purin-8-yl]-2-methylpiperazin-1-yl}-2-oxoethanol], the half-inhibitory concentration (IC50) in assay [1] and in assay [6] was less than 0.01 µM each time. Also, the GI50 in assay [2], in assay [3] and in assay [4] was not above 5 µM in each case.
Consider `C[C@@H]1CN(c2nc3c(N4CCOCC4)nc(-c4cnc(N)nc4)nc3n2CC(F)(F)F)CCN1C(=O)CO` [Example 126, 2-{(2R)-4-[2-(2-Aminopyrimidin-5-yl)-6-morpholin-4-yl-9-(2,2,2-trifluoroethyl)-9H-purin-8-yl]-2-methylpiperazin-1-yl}-2-oxoethanol], for which the IC50 in assay [1] and in assay [6] was less than 0.01 µM in each case. The GI50 in assay [2], in assay [3] and in assay [4] was not above 5 µM throughout.
With `CC(C)Cn1c(N2CCN(C(=O)C[C@H](C)O)CC2)nc2c(N3CCOC[C@@H]3C)nc(-c3cnc(N)nc3)nc21` [Example 133, (2S)-4-(4-[2-(2-Aminopyrimidin-5-yl)-9-isobutyl-6-[(3S)-3-methylmorpholin-4-yl]-9H-purin-8-yl]piperazin-1-yl)-4-oxobutan-2-ol], the half-maximal inhibitory concentration (IC50) in assay [1] is less than 0.01 µM. Moreover, the GI50 in assay [2], in assay [3] and in assay [4] was not above 5 µM in each case. In addition, the inhibition at 10 mg/kg is more than 60% in assay [7] and more than 90% in assay [8].
